In patent US10029993B2, “Disubstituted 1, 2, 4-triazine compound” (MITSUBISHI TANABE PHARMA CORPORATION, priority 2014, dated 2018) one finds IC50 data, which are given here for 44 compounds.

human CYP11B2, sequence (P19099 25-503): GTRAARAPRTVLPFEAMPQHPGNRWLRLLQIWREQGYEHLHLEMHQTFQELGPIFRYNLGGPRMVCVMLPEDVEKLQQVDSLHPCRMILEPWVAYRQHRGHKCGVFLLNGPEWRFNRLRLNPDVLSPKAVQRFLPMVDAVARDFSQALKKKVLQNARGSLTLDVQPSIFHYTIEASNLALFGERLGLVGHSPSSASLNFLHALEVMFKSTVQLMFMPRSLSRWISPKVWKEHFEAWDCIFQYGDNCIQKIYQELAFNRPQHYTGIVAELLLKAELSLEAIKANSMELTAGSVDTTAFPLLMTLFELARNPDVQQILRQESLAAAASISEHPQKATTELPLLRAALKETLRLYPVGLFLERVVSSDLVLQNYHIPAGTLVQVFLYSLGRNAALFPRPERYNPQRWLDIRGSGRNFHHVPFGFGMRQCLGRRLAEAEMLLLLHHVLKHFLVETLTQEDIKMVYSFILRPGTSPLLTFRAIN

This experiment deals with human CYP11B2 (Homo sapiens (Human), UniProt P19099). Briefly: Inhibitory effect on hCYP11B2 (aldosterone production by mitochondrial fraction of V79 cells stably expressing human CYP11B2, HTRF). It is filed as biochemical. The following applies: 0.5 μmol/L deoxycorticosterone, 150 μmol/L NADPH, 1.5-2 hours at room temperature. Here is the method:
Experimental Example 1 (Inhibitory Effect on hCYP11B2)
The pcDNA3.1-human CYP11B2 plasmid was transfected into a Chinese hamster lung fibroblast V79 cell line to produce a cell line stably expressing human CYP11B2 gene.
The cells were cultured and grown in the Dulbecco's modified Eagle's/Ham's medium supplemented with 10% fetal bovine serum and 1% G418 disulfate solution under the environment of 37° C., 95% air, and 5% CO2, and the grown cells were harvested.
Then, the cells were fractionated to obtain mitochondria by reference to a method described in Chabre et al. JCE 86 M 85 (11) 4060-68, 2000. In particular, the cells suspended in a 5 mmol/L Tris-HCl buffer (pH 7.4) containing 250 mmol/L sucrose were homogenized in a Teflon (Registered Trademark) Potter Elvehjem homogenizer, and then the suspension was centrifuged (800×g, 15 min.). The supernatant was separated and again centrifuged (10000×g, 15 min.) to obtain a pellet (mitochondrial fraction).
The mitochondrial fraction diluted with a buffer containing 10 mmol/L KH2PO4, 10 mmol/L Tris, 20 mmol/L KCl, 25 mmol/L sucrose, 5 mmol/L MgCl2, and 0.05% bovine serum albumin was dispensed to a 96-well plate. 0.5 μmol/L Deoxycorticosterone, 150 μmol/L NADPH and a compound of each concentration were added to each well, and incubated for 1.5-2 hours at room temperature to produce aldosterone. An amount of the produced aldosterone in the incubated solution was determined by using HTRF (Homogeneous Time Resolved Fluorescence) method.
IC 50 (nmol/L) was calculated by analyzing the aldosterone production inhibition rate (%) of each concentration of compounds by non-linear regression to a logistic curve.
What is called IC50 is the concentration needed to halve the response being measured. The compound `CN(C)[C@H]1CC[C@H](NC(=O)C(O)C2CCN(c3nncc(-c4ccc(F)cc4)n3)CC2)CC1` (relative stereo) [Example 252, 3-[4-[[[trans-4-(dimethylamino)cyclohexyl]carbamoyl]hydroxymethyl]piperidino]-5-(4-fluorophenyl)-1,2,4-triazine] returned an IC50 of 15 nM. This lies in the double-digit nanomolar range.
With `CC(C)[C@@H](CO)NC(=O)CN1CCN(c2nncc(-c3ccc(C(F)(F)F)cc3)n2)CC1` [Example 16] the figure was 16 nM.
Take `CN(C)[C@H]1CC[C@H](NC(=O)CN2CCN(c3nncc(-c4ccc(Cl)cc4)n3)CC2)CC1` [Example 18]: 7.9 nM corresponded to half-maximal inhibition (IC50).
`CO[C@H]1CC[C@H](NC(=O)CN2CCN(c3nncc(-c4ccc5c(cnn5C)c4)n3)CC2)CC1` [Example 19]: half-maximal inhibition (IC50) required 17 nM. This IC50 lies about 2.2-fold higher than the previous one.
Take `O=C1CN([C@H]2CC[C@H](NC(=O)CN3CCN(c4nncc(-c5ccc(F)cc5)n4)CC3)CC2)CCN1` [Example 26]: the IC50 came out at 8.5 nM. This IC50 lies about 2-fold lower than the previous one.
Under `O=C(CN1CCN(c2nncc(-c3ccc(Cl)cc3)n2)CC1)NC1CCS(=O)(=O)CC1` [Example 27] stands 13 nM; under `O=C(CN1CCN(c2nncc(-c3ccc(F)cc3)n2)CC1)N[C@H]1CC[C@H](N2CCOCC2)CC1` [Example 28], 8.4 nM; under `O=C(CN1CCN(c2nncc(-c3ccc(F)cc3)n2)CC1)NC1CCN(CC(=O)N2CCOCC2)CC1` [Example 38], 14 nM.
With `CNC(=O)CN1CCC(NC(=O)CN2CCN(c3nncc(-c4ccc(F)cc4)n3)CC2)CC1` [Example 44] the figure was 17 nM; with `O=C(CN1CCN(c2nncc(-c3ccc(F)cc3)n2)CC1)NCCN1CCS(=O)(=O)CC1` [Example 47], 11 nM; with `CC(=O)N[C@H]1CC[C@H](NC(=O)CN2CCN(c3nncc(-c4ccc(C)cc4)n3)CC2)CC1` [Example 48], 9 nM.
Turning to `Cc1ccc(-c2cnnc(N3CCN(CC(=O)N[C@H]4CC[C@H](S(C)(=O)=O)CC4)CC3)n2)cc1` [Example 50], the IC50 was found to be 6.3 nM.
For the compound `CN1CC[C@H](NC(=O)CN2CCN(c3nncc(-c4ccc(Cl)cc4)n3)CC2)CC1=O` [Example 54], half-maximal inhibition (IC50) was put at 7.2 nM.
`CNC(=O)CO[C@H]1CC[C@H](NC(=O)CN2CCN(c3nncc(-c4ccc(F)cc4)n3)CC2)CC1` [Example 55] yielded an IC50 of 8.7 nM.
In turn, `NC(=O)N1CCC(O)(CNC(=O)CN2CCN(c3nncc(-c4ccc(Cl)cc4)n3)CC2)CC1` [Example 59] showed an IC50 of 19 nM.
Consider `Cc1ccc(-c2cnnc(N3CCN(CC(=O)NC4CCN(CCNS(C)(=O)=O)CC4)CC3)n2)cc1` [Example 62], for which 10 nM corresponded to half-maximal inhibition (IC50).
With `CN(C)C(=O)Cn1cc(NC(=O)CN2CCN(c3nncc(-c4ccc(F)cc4)n3)CC2)cn1` [Example 71] the figure was 6.1 nM; with `Cc1ccc(-c2cnnc(N3CCN(CC(=O)Nc4cnn(CC(=O)N(C)C)c4)CC3)n2)cc1` [Example 75], 7.6 nM.
Regarding `CN(C)C(=O)Cn1cc(NC(=O)CN2CCN(c3nncc(-c4ccc(Cl)cc4)n3)CC2)cn1` [Example 76], the IC50 turned out to be 4.5 nM. Against the preceding compound, the IC50 is about 1.7-fold lower.
In turn, `CNC(=O)Cn1cc(NC(=O)CN2CCN(c3nncc(-c4ccc(C)cc4)n3)CC2)cn1` [Example 79] registered an IC50 of 4.5 nM. This lies in the single-digit nanomolar range.
For `CNC(=O)Cn1cc(NC(=O)CN2CCN(c3nncc(-c4ccc(F)cc4)n3)CC2)cn1` [Example 80], the IC50 amounted to 4.5 nM.
`CNC(=O)Cn1cc(NC(=O)CN2CCN(c3nncc(-c4ccc(Cl)cc4)n3)CC2)cn1` [Example 81]: inhibition was half-maximal at 2.7 nM (IC50).
Consider `CN1CCNC(=O)C12CCC(NC(=O)CN1CCN(c3nncc(-c4ccc(F)cc4)n3)CC1)CC2` (centres unmarked) [Example 82], for which the IC50 is 12 nM.
As to `CN(C)[C@H]1CC[C@H](NC(=O)CN2CCN(c3nncc(-c4cc(F)ccc4F)n3)CC2)CC1` [Example 83], the IC50 is 7.6 nM.
In turn, `CN1CC[C@H](NC(=O)CN2CCN(c3nncc(-c4ccc5c(c4)COC5)n3)CC2)CC1=O` [Example 84] displayed an IC50 of 25 nM.
Take `CNC(=O)CN1CCC(NC(=O)CN2CCN(c3nncc(-c4ccc(C)cc4)n3)CC2)CC1` [Example 85]: the IC50 was determined as 9.9 nM.
The compound `Cc1ccccc1-c1cnnc(N2CCN(CC(=O)Nc3cccnc3)CC2)n1` [Example 86] gave an IC50 of 0.5 nM.
In the case of `O=C(CN1CCN(c2nncc(-c3ccc(F)cc3)n2)CC1)NC1CN(C(=O)C2(O)CC2)C1` [Example 141], the midpoint of inhibition, the IC50, lay at 11 nM.
On to `Cc1ncc(CN2CCC(NC(=O)CN3CCN(c4nncc(-c5ccc(F)cc5)n4)CC3)CC2)[nH]1` [Example 147], for which the midpoint of inhibition, the IC50, lay at 18 nM. This IC50 lies about 1.6-fold higher than the previous one.
As to `O=C(CN1CCN(c2nncc(-c3ccc(F)cc3)n2)CC1)NC1CCN(CC2=NCCN2)CC1` [Example 151, 3-[4-[[1-[(4,5-dihydro-1H-imidazol-2-yl)methyl]piperidin-4-yl]carbamoylmethyl]piperazin-1-yl]-5-(4-fluorophenyl)-1,2,4-triazine], the midpoint of inhibition, the IC50, lay at 16 nM.
Consider `Cc1nc[nH]c1CN1CCC(NC(=O)CN2CCN(c3nncc(-c4ccc(F)cc4)n3)CC2)CC1` [Example 153], for which half-maximal inhibition (IC50) was put at 18 nM. This IC50 and that of the compound before are within 1.5-fold of each other.
In turn, `Cc1nc[nH]c1CN1CCC(NC(=O)CN2CCN(c3nncc(-c4ccc(Cl)cc4)n3)CC2)CC1` [Example 154] showed an IC50 of 1.1 nM.
Turning to `O=C(CN1CCN(c2nncc(-c3ccc(C(F)(F)F)cc3)n2)CC1)NC1CC2COCC(C1)C2O` (stereo not drawn) [Example 157a, 3-[4-[[(7-exo-9-endo)-9-hydroxy-3-oxabicyclo[3.3.1]nonan-7-yl]carbamoylmethyl]piperazin-1-yl]-5-(4-trifluoromethylphenyl)-1,2,4-triazine], the IC50 is 14 nM.
Under `CN1CCO[C@@H](CNC(=O)CN2CCN(c3nncc(-c4ccc(F)cc4)n3)CC2)C1` [Example 159a, 5-(4-fluorophenyl)-3-[4-[[(4-methylmorpholyn-2-yl)methyl]carbamoylmethyl]piperazin-1-yl]-1,2,4-triazine] stands 7.7 nM; under `Cc1ccccc1-c1cnnc(N2CCN(c3ccc(F)cc3)CC2)n1` [Example 170, 3-[4-(4-fluorophenyl)piperazin-1-yl]-5-(o-tolyl)-1,2,4-triazine], 23 nM.
`Clc1ccc(-c2cnnc(N3CCN(C4CCOCC4)CC3)n2)cc1` [Example 178]: the IC50 was determined as 5 nM.
With `CC(C)NC(=O)NC1CCN(c2nncc(-c3ccc(F)cc3)n2)CC1` [Example 180], the IC50 came out at 6.1 nM.
As to `Cc1ccccc1-c1cnnc(N2CCC(CCCO)CC2)n1` [Example 183], inhibition was half-maximal at 0.7 nM (IC50).
In turn, `Cc1ccccc1-c1cnnc(N2CC[C@@H](Oc3ccncc3)C2)n1` [Example 188] gave an IC50 of 6 nM.
`CN(CCCS(C)(=O)=O)c1nncc(-c2ccc3ccccc3c2)n1` [Example 192] gave an IC50 of 38 nM. This IC50 lies about 6.3-fold higher than the previous one.
`CC(=O)N1CCC(CNc2nncc(-c3ccc4ccccc4c3)n2)CC1` [Example 196] showed an IC50 of 67 nM.
On to `O=C1NCC2(CCN(c3nncc(-c4ccc5ccccc5c4)n3)CC2)O1` [Example 199], for which the IC50 came to 12 nM.
In the case of `Cn1c(-c2cnnc(N3CCOCC3)n2)cc2ccccc21` [Example 211, 5-(1-methyl-1H-indol-2-yl)-3-morpholino-1,2,4-triazine], half-maximal inhibition (IC50) was put at 2.4 nM.
`CC(C)NC(=O)CN1CCN(c2nncc(-c3ccc(C#N)nc3)n2)CC1` [Example 215, 5-(2-cyano-5-pyridyl)-3-[4-(isopropylcarbamoylmethyl)piperazin-1-yl]-1,2,4-triazine] came in with an IC50 of 29 nM. This IC50 is about 12-fold higher than that of the compound before.
